Here are results for five compounds from patent US20020022587A1, “Methods for effecting neuroprotection” (priority 2000, published 2002).

Series [1] has as its system magnocellular neurons of the paraventricular nucleus (PVN). The experiment in a line: NMDA agonist excitotoxicity after PVN microinjection, histological count of surviving magnocellular neurons, Sprague-Dawley rats. The settings on record: counted three days later. Type of series: in vivo, rat. On the procedure:
Experiments were performed on male Sprague-Dawley rats (150-525 g. Charles River, P.Q., Canada). The animals were anesthetized with sodium pentobarbitol (65 mg/kg, ip), placed in a stereotaxic frame and the skull exposed, and a small burr hole drilled in the skull such that a cannula electrode (tip diameter 150 μm) could be advanced into the region of the PVN according to the coordinates of Paxinos and Watson (−0.9 mm Bregma, 0.5 mm lateral, 7.5 mm ventral) (Paxinos and Watson, The Rat Brain in Stereotaxic Coordinates, Academic Press, New York (1982)). Each animal received a 1.0 μl microinjection to each PVN (2×0.5 μl) according to one of the following protocols, saline/saline, saline/NMDA, 4-AP/saline, 4-AP/NMDA, angiotensin-II/saline, angiotensin-II/NMDA, saralasin (SAR)/NMDA. The incision was then closed and the animal received the analgesic Buprenorphin (0.03 mg/kg, SQ) to aid postoperative recovery. Animals were allowed to recover for three days after which they were overdosed with sodium pentobarbitol (100 mg/kg) and perfused with 0.9% saline followed by 10% formalin through the left ventricle of the heart. The brain was removed, placed in formalin overnight at […]. The brain was then cut into a smaller block contained PVN and stored in a 30% sucrose, 0.1 M phosphate buffer at 4° C. for at least two days.
The blocks were mounted, covered with Tissue-Tek O.C.T. compound (Sakura) and flash frozen in 2-methyl butane (cooled by dry ice) for 45 seconds. Using the Frigocut 280 (Reichart Jung), 20 μm coronal sections were cut through the area of PVN. These sections were mounted and cresyl violet stained. The histological locations of the microinjection sites were verified at the light microscope level by an observer unaware of the experimental conditions. Only those animals with microinjection within the boundaries of PVN were further analyzed.
Magnocellular neurons were differentiated from parvocellular neurons and cellular material by specific morphological characteristics (Sawchenko and Swanson, J. Comp. Neuro. 218:121-44 (1983)). In addition to the anatomical location of the neuron within PVN, morphological size was used to further characterize neuronal type. Neurons with soma diameter of approximately 20-25 μm and intact nuclei were characterized as viable magnocellular neurons. Neurons with soma diameter of between 15 and 20 μm were not included in the study, as they could not be reliably classified as belonging to either subpopulation. Histological sections were viewed under high magnification (40×) at the light microscope level and a grid was superimposed over each area of PVN. […] Comparative analyses were performed whereby neurons were counted in 20 μm sections following the initial emergence of PVN. […]

The test system is the same in series [2]. The experiment in a line: NMDA agonist excitotoxicity after PVN microinjection, surviving magnocellular neurons, spontaneously hypertensive rats. Format: in vivo, rat. The source says: (§1) To determine whether magnocellular neurons in hypertensive rats with increased central angiotensin-II lose their resistance to excitotoxins as a consequence of endogenous angiotensin-II inhibiting the transient K^+ conductance, NMDA agonist or vehicle control was microinjected into PVN and surviving neurons were counted three days later. Following such treatment, a similar loss of parvocellular neurons to that found in normotensive animals was observed (82±2% surviving), while the resistance of magnocellular neurons was no longer observed in these animals (71±5% surviving) (see FIG. 3 for specific N values). To confirm that angiotensin-II was responsible for this loss of resistance, the NMDA agonist was next microinjected into PVN of spontaneously hypertensive rats immediately following the angiotensin-II receptor antagonist saralasin. […] These findings provide the first direct evidence that elevated angiotensin-II concentrations in the central nervous system of hypertensive animals may contribute to the increased susceptibility for stroke and that these actions can be prevented by central angiotensin-II receptor blockade. […]
(§2) The blocks were mounted, covered with Tissue-Tek O.C.T. compound (Sakura) and flash frozen in 2-methyl butane (cooled by dry ice) for 45 seconds. […] Only those animals with microinjection within the boundaries of PVN were further analyzed. […]

The subject of series [3] is parvocellular neurons of the paraventricular nucleus (PVN). The experiment in a line: NMDA agonist excitotoxicity after PVN microinjection, surviving parvocellular neurons, spontaneously hypertensive rats. Format: in vivo, rat. The settings on record: NMDA agonist alone into PVN, counted three days later.
Source text: as §1, §2

In series [4] the test system is outwardly rectifying whole-cell K+ current of isolated PVN neurons. The experiment in a line: Voltage clamp recordings from dissociated PVN neurons, voltage ramps. Format: cell-based, rat. As to conditions: voltage ramps 100 mV/sec. On the procedure:
Male, Sprague-Dawley rats (150-250 g, Charles River, P.Q., Canada) were killed by decapitation, the brain was removed quickly from the skull and immersed in cold (1-4° C.) artificial cerebrospinal fluid (aCSF). The brain was blocked and 400 μm hypothalamic slices, which included the PVN, were prepared as described in Bains and Ferguson (NeuroReport 8(9-10):2101-05 (1997)). Slices were incubated in oxygenated aCSF (95% O2, 5% CO2) for at least 90 minutes at room temperature. Twenty minutes prior to recording, the slice was transferred into a modified interface type recording chamber and continuously perfused with aCSF at a rate of 1 ml/min.
For isolated neurons, pipettes of 1-4 MΩ were filled with a pipette solution containing (in mM): potassium-gluconate (130), EGTA(10), MgCl2 (1), HEPES (10), Na2ATP (4), GTP (0.1), adjusted to pH 7.2 with KOH. The standard bath solution contained (inmM): NaCl (140), KCl (5), MgCl2 (1), CaCl2 (2), HEPES (10), glucose (10) and […] tetrodotoxin (TTX) (Alamone Labs, Jerusalem, Israel). Signals were amplified, collected and processed using an Axopatch 200B (Axon Instruments) amplifier, a 1401plus A-D interface and Signal software from C.E.D. […]

For series [5] the following is noted: Li et al., Brain Res. Bull. 30:33-39 (1993); cited from earlier work.
Series [6] has as its system parvocellular neurons of the paraventricular nucleus (PVN). The experiment in a line: NMDA agonist excitotoxicity after PVN microinjection, histological count of surviving parvocellular neurons, Sprague-Dawley rats. Type of series: in vivo, rat. On the procedure: Experiments were performed on male Sprague-Dawley rats (150-525 g. Charles River, P.Q., Canada). The animals were anesthetized with sodium pentobarbitol (65 mg/kg, ip), placed in a stereotaxic frame and the skull exposed, and a small burr hole drilled in the skull such that a cannula electrode (tip diameter 150 μm) could be advanced into the region of the PVN according to the coordinates of Paxinos and Watson (−0.9 mm Bregma, 0.5 mm lateral, 7.5 mm ventral) (Paxinos and Watson, The Rat Brain in Stereotaxic Coordinates, Academic Press, New York (1982)). Each animal received a 1.0 μl microinjection to each PVN (2×0.5 μl) according to one of the following protocols, saline/saline, saline/NMDA, 4-AP/saline, 4-AP/NMDA, angiotensin-II/saline, angiotensin-II/NMDA, saralasin (SAR)/NMDA. […]
The blocks were mounted, covered with Tissue-Tek O.C.T. compound (Sakura) and flash frozen in 2-methyl butane (cooled by dry ice) for 45 seconds. […] Only those animals with microinjection within the boundaries of PVN were further analyzed.
Magnocellular neurons were differentiated from parvocellular neurons and cellular material by specific morphological characteristics (Sawchenko and Swanson, J. Comp. Neuro. 218:121-44 (1983)). […] Comparative analyses were performed whereby neurons were counted in 20 μm sections following the initial emergence of PVN. […]

The mark [7] stands for this setting: substance microinjected into PVN alone.
The mark [8] stands for this setting: substance microinjected into PVN prior to NMDA agonist.

With `N[C@@H](C(=O)O)c1nnn[nH]1` [NMDA agonist, D-1-tetrazol-5yl-glycine], the “proportion of magnocellular neurons surviving” value in series [1] (setting [7]) is reported as 100.0±2.4%. The compound also came in with a magnocellular neurons surviving in series [2] (hypertensive rats, NMDA agonist alone into PVN, counted three days later) of 71±5%. Moreover, in series [3], the parvocellular neurons surviving stood at 82±2%.

For the compound a-dendrotoxin [a-DTX], in series [4] (1 μM), the “inhibition of outwardly rectifying whole-cell current, compared with 100 μM 4-AP” value is reported as “to an equal degree”.

As for “angiotensin-II: octapeptide hormone, end product of the RAS, powerful arterial vasoconstrictor”, the “proportion of magnocellular neurons surviving” value in series [1] (setting [7]) turned out to be 97.4±4.2%; in series [1] (setting [8]), 80.8±3.75%.

With `CNCC(=O)N[C@@H](CCCN=C(N)N)C(=O)N[C@H](C(=O)N[C@@H](Cc1ccc(O)cc1)C(=O)N[C@H](C(=O)N[C@@H](Cc1cnc[nH]1)C(=O)N1CCC[C@H]1C(=O)N[C@@H](C)C(=O)O)C(C)C)C(C)C` [saralasin, Sar^1Ala^8-angiotensin-II], in series [2] (SHR PVN, saralasin by itself), the “effect on cell viability” value is on record as “no effect”. The “crossing of the blood-brain barrier” value in series [5] is “does not cross the blood-brain barrier”.

In the case of `Nc1ccncc1` [4-AP, 4-aminopyridine], the “proportion of magnocellular neurons surviving” value in series [1] (setting [8]) stood at 78.9±4.6%. Moreover, in series [4] (100 μM), the “inhibition of outwardly rectifying whole-cell current” value is reported as “inhibited”. In series [6] (4-AP pretreatment before NMDA agonist microinjection), the “effect of 4-AP on parvocellular neuron population” value was “no significant effect”. Further, in series [6] (NMDA agonist microinjection, PVN treated with 4-AP), the “proportion of parvocellular neurons surviving” value was 80.9±3.0%.
